Structures can show the parent of a compound that is named as a salt.
How the values were obtained:
Format in all cases: in vivo
[1] = test system: yellow nutsedge; test: Herbicide effect, foliar spray on yellow nutsedge grown in pots (Test Example 1); parameters: key: a level was taken “0” when completely or almost no difference was observed between the growth behavior of a test weed at the time of observation and that of untreated weed; a level was taken “10” when a test weed completely died or the growth of that was completely inhibited; conditions: 5 days after treatment, levels 0-10
Protocol: (§1) Evaluation of phytotoxicity against a crop was shown by “no” when almost no phytotoxicity was observed, “low” when a low level phytotoxicity was observed, “medium” when a medium level phytotoxicity was observed and “high” when a high level phytotoxicity was observed.
(§2) A plastic pot of 11 cm in diameter and 8 cm in depth was filled with field soil. A tuber of yellow nutsedge was buried and grown in a greenhouse for 28 days.
(§3) An emulsion of Compound A-1 was prepared by sufficiently mixing 5 parts of Compound A-1, 6 parts of Sorpol 3005X (surfactant, produced by Toho Chemical) and 89 parts of xylene.
(§4) Each of • (a) single use of an emulsion of Compound A-1, • (b) single use of a solution of Glyphosate isopropylamine salt (commercial name: Roundup, produced by Nippon Monsanto, containing 41% of Glyphosate isopropylamine salt), • (c) single use of a solution of Gltfosinate-Ammonium (commercial name: Basta, produced by Hoechst Schering AgrEvo GmbH, containing 18.5% of Glufosinate-Ammonium), • (d) a mixed composition of an emulsion of Compound A-1 and a solution of Glyphosate isopropylamine salt, and • (e) a mixed composition of an emulsion of Compound A-1 and a solution of Glufosinate-Ammonium were diluted with water containing 1% Agri-dex (produced by Helena). Respective dilutions were uniformly sprayed from upper side onto foliages of yellow nutsedge grown as described above with a small sprayer such that the amounts of the active ingredients were the amounts shown in Table 4. Immediately after the treatment with the test compounds, seeds of corn, soybean and cotton were sown.
(§5) After the treatment, they were raised in a greenhouse for 5 days and the effect against weeds was evaluated. In addition, after 14 days of the treatment, the phytotoxicity to corn, soybean and cotton was evaluated.

[2] = test system: soybean; test: Phytotoxicity to soybean sown immediately after treatment (Test Example 1); parameters: key: “no” when almost no phytotoxicity was observed; “low” when a low level phytotoxicity was observed; “medium” when a medium level phytotoxicity was observed; “high” when a high level phytotoxicity was observed; conditions: 14 days after treatment
Protocol: as §1, §2, §3, §4, §5

[3] = test system: cotton; test: Phytotoxicity to cotton sown immediately after treatment (Test Example 1); parameters: key: “no” when almost no phytotoxicity was observed; “low” when a low level phytotoxicity was observed; “medium” when a medium level phytotoxicity was observed; “high” when a high level phytotoxicity was observed; conditions: 14 days after treatment
Protocol: as §1, §2, §3, §4, §5

[4] = test system: corn; test: Phytotoxicity to corn sown immediately after treatment (Test Example 1); parameters: key: “no” when almost no phytotoxicity was observed; “low” when a low level phytotoxicity was observed; “medium” when a medium level phytotoxicity was observed; “high” when a high level phytotoxicity was observed; conditions: 14 days after treatment
Protocol: as §1, §2, §3, §4, §5

Row | SMILES | Herbicide Effect ([1]; 100 g/ha) | Herbicide Effect ([1]; 500 g/ha) | Phytotoxicity Be ([2]; 100 g/ha) | Phytotoxicity Be ([2]; 500 g/ha) | Phytotoxicity Ct ([3]; 100 g/ha) | Phytotoxicity Ct ([3]; 500 g/ha) | Phytotoxicity Cr ([4]; 100 g/ha) | Phytotoxicity Cr ([4]; 500 g/ha) | Herbicide Effect ([1]; 200 g/ha) | Herbicide Effect ([1]; 1000 g/ha) | Phytotoxicity Be ([2]; 200 g/ha) | Phytotoxicity Be ([2]; 1000 g/ha) | Phytotoxicity Ct ([3]; 200 g/ha) | Phytotoxicity Ct ([3]; 1000 g/ha) | Phytotoxicity Cr ([4]; 200 g/ha) | Phytotoxicity Cr ([4]; 1000 g/ha)
1 | CP(=O)(O)CCC(N)C(=O)O.N (racemic) [Glufosinate-Ammonium, ammonium DL-homoalanin-4-yl(methyl)phosphinate] | 0 | 2 | no | no | no | no | no | no |  |  |  |  |  |  |  | 
2 | O=C(O)CNCP(=O)(O)O [Glyphosate Isopropylamine Salt, N-(phosphonomethyl)glycine] |  |  |  |  |  |  |  |  | 0 | 0 | no | no | no | no | no | no

Source: patent US7732602B2, “Herbicide composition” (Sumitomo Chemical Company, Limited, priority 2001, dated 2010)
